pIC50: −log10 of the molar value.
Assays:
MERTK = molecular target: T1, MERTK (Homo sapiens, UniProt Q12866); test: TR-FRET kinase activity assay, MERTK; assay type: biochemical; conditions: for pIC50: TR-FRET activity assay, ATP at Km, 60 minutes, read-out: Mer IC50; for Mer/Flt3 ratio (FLT3 IC50/Mer IC50): ratio calculated as FLT3 IC50/Mer IC50
T1 sequence (Q12866 21-999): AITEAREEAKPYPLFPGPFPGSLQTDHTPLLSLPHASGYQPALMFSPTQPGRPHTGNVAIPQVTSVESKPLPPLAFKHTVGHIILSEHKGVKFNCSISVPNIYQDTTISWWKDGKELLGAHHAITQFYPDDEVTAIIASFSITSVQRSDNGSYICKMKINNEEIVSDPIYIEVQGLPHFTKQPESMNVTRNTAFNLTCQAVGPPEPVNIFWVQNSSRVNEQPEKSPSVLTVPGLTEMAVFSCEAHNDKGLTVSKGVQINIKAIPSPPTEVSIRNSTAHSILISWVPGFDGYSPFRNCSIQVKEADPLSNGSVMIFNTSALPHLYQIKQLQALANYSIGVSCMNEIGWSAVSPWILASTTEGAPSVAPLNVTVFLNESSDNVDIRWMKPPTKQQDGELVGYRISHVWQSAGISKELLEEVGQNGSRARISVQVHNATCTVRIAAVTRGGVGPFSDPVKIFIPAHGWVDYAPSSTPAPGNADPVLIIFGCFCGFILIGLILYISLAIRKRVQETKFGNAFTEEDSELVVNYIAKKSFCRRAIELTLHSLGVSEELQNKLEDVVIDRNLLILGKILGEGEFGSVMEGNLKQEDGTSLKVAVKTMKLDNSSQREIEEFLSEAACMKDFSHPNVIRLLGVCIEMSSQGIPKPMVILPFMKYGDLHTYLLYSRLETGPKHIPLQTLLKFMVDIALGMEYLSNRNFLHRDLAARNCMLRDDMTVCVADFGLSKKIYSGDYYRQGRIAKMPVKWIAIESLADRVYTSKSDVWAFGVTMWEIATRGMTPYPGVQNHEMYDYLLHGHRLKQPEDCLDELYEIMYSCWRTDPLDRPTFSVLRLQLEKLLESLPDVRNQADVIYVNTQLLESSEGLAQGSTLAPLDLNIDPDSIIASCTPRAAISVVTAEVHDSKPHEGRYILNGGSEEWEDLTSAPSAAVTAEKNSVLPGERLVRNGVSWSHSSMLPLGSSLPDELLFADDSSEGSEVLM
Method in brief: (§1)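 IC50s come from loss of TR-FRET between a Eu-labeled phospho-site antibody and fluorescent tyrosine-phosphorylated peptide. Kinase reactions, initiated with Km ATP, ran 60 min at RT at pH 7.5 before EDTA quench.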

TYRO3 = molecular target: T2, TYRO3 (Homo sapiens, UniProt Q06418); test: TR-FRET kinase activity assay, TYRO3; assay type: biochemical; conditions: ATP at Km, 60 minutes
T2 sequence (Q06418 41-890): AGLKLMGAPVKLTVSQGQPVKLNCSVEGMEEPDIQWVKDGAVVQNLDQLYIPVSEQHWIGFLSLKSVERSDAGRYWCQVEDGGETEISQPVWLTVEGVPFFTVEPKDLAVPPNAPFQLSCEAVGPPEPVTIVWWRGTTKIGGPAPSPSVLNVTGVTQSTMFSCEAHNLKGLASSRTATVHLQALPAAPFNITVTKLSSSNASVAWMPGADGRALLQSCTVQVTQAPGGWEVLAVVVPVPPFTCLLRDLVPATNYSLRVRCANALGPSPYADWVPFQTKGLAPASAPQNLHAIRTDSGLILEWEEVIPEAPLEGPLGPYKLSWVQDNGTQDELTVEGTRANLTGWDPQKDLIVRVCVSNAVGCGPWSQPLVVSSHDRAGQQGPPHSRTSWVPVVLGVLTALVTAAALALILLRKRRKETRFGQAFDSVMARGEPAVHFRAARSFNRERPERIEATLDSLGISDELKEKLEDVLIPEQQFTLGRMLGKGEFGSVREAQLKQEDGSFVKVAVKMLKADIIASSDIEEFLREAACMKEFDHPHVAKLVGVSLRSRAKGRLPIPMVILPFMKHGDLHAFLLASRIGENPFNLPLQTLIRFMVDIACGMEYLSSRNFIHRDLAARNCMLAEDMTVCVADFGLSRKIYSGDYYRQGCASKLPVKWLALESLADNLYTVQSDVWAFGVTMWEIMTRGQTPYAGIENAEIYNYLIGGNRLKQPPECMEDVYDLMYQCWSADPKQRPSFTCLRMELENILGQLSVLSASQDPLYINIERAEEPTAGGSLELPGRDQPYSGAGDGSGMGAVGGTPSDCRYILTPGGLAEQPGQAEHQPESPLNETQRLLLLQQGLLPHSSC
Method in brief: as §1

Structure (SMILES) | pIC50 (MERTK) | Mer/Flt3 ratio (FLT3 IC50/Mer IC50) (MERTK) | pIC50 (TYRO3)
COC[C@H](C)Nc1ncc2c(OC3CCOCC3)ncc(-c3cccc(C#N)c3)c2n1 [Compound 320] | 6.00 to 7.00 | ++ (a ratio of between 10 and 100) | 6.00 to 7.00
CC[C@H](C)Nc1ncc2c(O[C@H]3CC[C@H](N)CC3)ncc([C@H]3CC[C@H](O)CC3)c2n1 [Compound 321] | ≥ 7.00 | +++ (a ratio of >100) | ≥ 7.00
CN(C)S(=O)(=O)c1cccc(-c2cnc(OC3CCOCC3)c3cnc(NC4(C)CC4)nc23)c1 [Compound 322] | ≥ 7.00 | +++ (a ratio of >100) | 6.00 to 7.00
CN1C[C@H](Nc2ncc3c(OC4CCOCC4)ncc([C@H]4CC[C@H](O)CC4)c3n2)CC1=O [Compound 323] | ≥ 7.00 | +++ (a ratio of >100) | 5.00 to 6.00
CN1C[C@@H](Nc2ncc3c(OC4CCOCC4)ncc([C@H]4CC[C@H](O)CC4)c3n2)CC1=O [Compound 324] | 6.00 to 7.00 | ++ (a ratio of between 10 and 100) | 5.00 to 6.00
COC[C@H](C)Nc1ncc2c(OC3CCOCC3)ncc(-c3cccc(C(N)=O)c3)c2n1 [Compound 325] | 6.00 to 7.00 | ++ (a ratio of between 10 and 100) | 5.00 to 6.00
COC[C@H](C)Nc1ncc2c(OC3CCOCC3)ncc([C@H]3CCCNC3)c2n1 [Compound 326] | 6.00 to 7.00 | NS (a ratio of ≤2.0) | 6.00 to 7.00
COC[C@H](C)Nc1ncc2c(OC3CCOCC3)ncc([C@@H]3CCCNC3)c2n1 [Compound 327] | 6.00 to 7.00 | ++ (a ratio of between 10 and 100) | 5.00 to 6.00
COC[C@H](C)Nc1ncc2c(OC3CCOCC3)ncc(-c3cccc(S(N)(=O)=O)c3)c2n1 [Compound 328] | 6.00 to 7.00 | ++ (a ratio of between 10 and 100) | 6.00 to 7.00
COC[C@H](C)Nc1ncc2c(OC3CCOCC3)ncc([C@H]3CC[C@@](O)(C(F)(F)F)CC3)c2n1 [Compound 329] | ≥ 7.00 | +++ (a ratio of >100) | 6.00 to 7.00
COC[C@H](C)Nc1ncc2c(OC3CCOCC3)ncc([C@H]3CC[C@](O)(C(F)(F)F)CC3)c2n1 [Compound 330] | 6.00 to 7.00 | ++ (a ratio of between 10 and 100) | 6.00 to 7.00
N#Cc1ccc(Nc2ncc3c(OC4CCNCC4)ncc([C@H]4CC[C@H](O)CC4)c3n2)cc1 [Compound 331] | ≥ 7.00 | + (a ratio of >2.0 and <10) | ≥ 7.00
COC[C@H](C)Nc1ncc2c(OC3CCOCC3)ncc([C@H]3CCCN(C)C3)c2n1 [Compound 332] | 6.00 to 7.00 | + (a ratio of >2.0 and <10) | 6.00 to 7.00
COC[C@H](C)Nc1ncc2c(OC3CCOCC3)ncc([C@@H]3CCCN(C)C3)c2n1 [Compound 333] | 5.00 to 6.00 | + (a ratio of >2.0 and <10) | 5.00 to 6.00
COC[C@H](C)Nc1ncc2c(OC3CCOCC3)ncc(-c3cnn([C@H]4CCN(C)C4)c3)c2n1 [Compound 334] | ≥ 7.00 | ++ (a ratio of between 10 and 100) | 6.00 to 7.00
COC[C@H](C)Nc1ncc2c(OC3CCOCC3)ncc(-c3ccc(CO)cc3)c2n1 [Compound 335] | ≥ 7.00 | +++ (a ratio of >100) | 6.00 to 7.00
